Paper PMC8395767, “Worsening of the Toxic Effects of (±)Cis-4,4′-DMAR Following Its Co-Administration with (±)Trans-4,4′-DMAR: Neuro-Behavioural, Physiological, Immunohistochemical and Metabolic Studies in Mice” (International Journal of Molecular Sciences, 2021)
Where “and” joins values, the source holds several entries; their conditions need not be identical. Equal entries are not always repeated. Marks after values point to notes of the source that are not given here.

Assays:
[1] = tested on: HSP70; assay: Immunohistochemistry, frontal cortex: HSP70; type: in vivo, mice
Description: (§1) Following the acute death or the sacrifice of the animals (after 5-h observation period by dislocation of the spine), brains were taken. These were fixed in 4% buffered formalin and then sampled and incorporated into the paraffin (Leica ASP300 processor, Histoline TEC2900 incorporator; Leica Microsystems Srl, Buccinasco, Milano, Italy). Subsequently, the cut (performed with the Leica HistoCore autocut microtome; Leica Microsystems Srl, Buccinasco, Milano, Italy) was designed to create sections with a thickness of 5 µm for each sample.
(§2) On 5-µm-thick paraffined […] sections, we evaluated the expression of a panel of markers: heat shock proteins (HSP27, HSP70, HSP90), SMAC/DIABLO, NF-kB, iNOS, NOX-2, NT, 8-OHDG.
(§3) We used a detection system composed of a biotinylated secondary antibody and HRP-conjugated streptavidin (4plus HRP Universal Detection, Biocare Medical). 3′-,3Diaminobenzidine (DAB) and H2O2 (Betazoid DAB Chromogen Kit, Biocare Medical, Concord, CA, USA) were used as chromogen/substrate. […] In the pictures (sections of the frontal cortex; Figure 3, Figure 4 and Figure 5) to evaluate the variation in the expression of markers (Smac, NOX2, iNOS, 8-OHdG, NT, HSP27, HSP70, HSP90) following treatments, the change in intensity of brown colour (staining of the immunohistochemical technique) in the control and treated tissue was measured. Quantification of Smac, NOX2, iNOS, 8-OHdG, NT, HSP27, HSP70 and HSP90 positive-stained areas was performed by the ImageJ software (imagej.nih.gov/ij/ Accessed date 12 May 2020). […] Positivity was expressed as an extension of the stained analysed area.
(§4) Sweating and salivation were expressed as frequency (e.g., % of animals that developed symptoms); psychomotor agitation was expressed as frequency (% of animals) and duration (total time in mins). Core temperature values were expressed as the difference between control temperature (before injection) and temperature following drug administration (Δ°C). Aggressiveness was expressed as frequency (% of animals which become aggressive) and score (number of bites). […]

[2] = tested on: mice; assay: Core temperature (rectal probe), hyperthermia; type: in vivo
Description: The effects of (±)cis-4,4′-DMAR, (±)trans-4,4′-DMAR and their co-administration were investigated by a protocol widely used in studies of “safety pharmacology” for the preclinical characterization of new molecules in rodents. This protocol includes a series of observational behavioural tests carried out in a consecutive manner that monitor the animal responses up to 5 h after compound injections. In the present study, we reported the observation of physiological (sweating, salivation, core temperature) and neuro-behavioural (detection of psychomotor agitation, spontaneous and stimulated aggressiveness, convulsions) changes occurring in mice after injection of (±)cis-4,4′-DMAR, (±)trans-4,4′-DMAR and their co-administration. Before pharmacological treatment the mouse was placed on a square plate (30 cm× 30 cm) raised from the ground (20 cm) and left free to move on the plate for 10 min (habituation period). The animal was then injected with the vehicle, substances alone ((±)cis-4,4′-DMAR or (±)trans-4,4′-DMAR) or in cis + trans co-administration and placed on the plate. From this moment, the recording time of the physiological and neuro-behavioural responses started, and these were detected in 5-min sessions.
After the first 5 min, the animal was removed from the plate; the body core temperature was then measured, and the aggression tests were performed. The 5-min observation period was repeated at 15–30–60–90–120–180–240–300. Psychomotor agitation in the mouse was not simply related to an increase in spontaneous locomotion itself, but by an “unusual hyperactivity” which was characterised by rapid and sudden horizontal displacements in all directions, sustained turning behaviour, involuntary falls from the high plate during the evaluation of the tests, stereotyped movements and rearing activity. Mouse sweating and salivation were reported only if present or not. The core temperature was determined using a probe (1 mm diameter) that was gently inserted after lubrication with liquid Vaseline into the rectum of the mouse (to about 2 cm) and left in position until the temperature stabilised (about 10 s). The probe was connected to a digital thermometer. Spontaneous aggressive response was measured based on the number of times a mouse bit a grey cloth put in front of its snout. During the test, each mouse was free to move within the cage. In the case of stimulated aggressiveness, each mouse was manually restrained and held in a supine position following which an object was brought near the mouth. For both spontaneous and stimulated aggressive behaviour tests, a grey cloth was placed in front of the nose of each mouse 10 consecutive times (score 0/10 not aggressive, score 10/10 very aggressive). Convulsions were defined as a loss of righting reflexes for at least 5 s, combined with the presence of body tremors and clonic or tonic limb movements. Deaths caused by 4-4’-DMAR injection occurring during the observation period (5 h) were also reported as frequency (%) and time of death (min). Experiments were conducted inside the LARP (Centralised Preclinical Research Laboratory, University of Ferrara, Ferrara, Italy) in a thermo-stated (temperature 20–22 °C, humidity about 45–55%) and light controlled (about 150 lux) room, in which there was a background noise of about 40 ± 4 dB. The experiments, conducted in blind by trained observers working together in pairs, were videotaped and eventually analysed off-line by a different trained operator. The experiments were performed between 8:30 a.m. and 2:00 p.m.
Sweating and salivation were expressed as frequency (e.g., % of animals that developed symptoms); psychomotor agitation was expressed as frequency (% of animals) and duration (total time in mins). Core temperature values were expressed as the difference between control temperature (before injection) and temperature following drug administration (Δ°C). […]

[3] = tested on: iNOS; assay: Immunohistochemistry, frontal cortex: iNOS; type: in vivo, mice
Description: as §1, §2, §3, §4

[4] = tested on: NF-kB; assay: Immunohistochemistry, frontal cortex: NF-kB; type: in vivo, mice
Description: as §1, §2
We used a detection system composed of a biotinylated secondary antibody and HRP-conjugated streptavidin (4plus HRP Universal Detection, Biocare Medical). […] In the pictures (sections of the frontal cortex; Figure 3, Figure 4 and Figure 5) to evaluate the variation in the expression of markers (Smac, NOX2, iNOS, 8-OHdG, NT, HSP27, HSP70, HSP90) following treatments, the change in intensity of brown colour (staining of the immunohistochemical technique) in the control and treated tissue was measured. Quantification of Smac, NOX2, iNOS, 8-OHdG, NT, HSP27, HSP70 and HSP90 positive-stained areas was performed by the ImageJ software (imagej.nih.gov/ij/ Accessed date 12 May 2020). […]

[5] = 10 mg/kg i.p., n=4 mice (animals of the urine excretion study)

## Cc1ccc(C2OC(N)=NC2C)cc1 (stereo not drawn) [cis-4,4’-DMAR, 4-methyl-5-(4-methylphenyl)-4,5-dihydrooxazol-2-amine]
[1]; 10 mg/kg alone
  Immunoreactivity of HSP70 in the frontal cortex: ineffective
[1]; 30 and 60 mg/kg, vs control
  Immunoreactivity of HSP70 in the frontal cortex: increased
[2]; 0.1 mg/kg i.p., n=6 mice
  Hyperthermia Variation (Δ°C): −0.18 ± 0.14 Δ°C
[2]; 1 mg/kg i.p., n=6 mice
  Hyperthermia Variation (Δ°C): −0.22 ± 0.17 Δ°C
[2]; 3 mg/kg i.p., n=6 mice
  Hyperthermia Variation (Δ°C): −0.34 ± 0.22 Δ°C
[2]; [5]
  Hyperthermia Variation (Δ°C): −0.21 ± 0.15 Δ°C
[2]; 10 mg/kg i.p., n=6 mice
  Hyperthermia Variation (Δ°C): −0.41 ± 0.13 Δ°C
[2]; 30 mg/kg i.p., n=6 mice
  Hyperthermia Latency: 25 ± 0.25 min
  Hyperthermia Variation (Δ°C): 1.52 ± 0.11 ^c Δ°C
[2]; 30 mg/kg i.p., n=6 mice, listed as (±)cis-4,4′-DMAR
  Hyperthermia Variation (Δ°C): 1.52 ± 0.11 Δ°C
[2]; 60 mg/kg i.p., n=6 mice
  Hyperthermia Latency: 7.12 ± 0.23 min
  Hyperthermia Latency (min): 7.12 ± 0.23 ^d min
  Hyperthermia Variation (Δ°C): 2.22 ± 0.12 ^c Δ°C and 2.22 ± 0.12 Δ°C
[2]; 60 mg/kg i.p., n=6 mice, listed as (±)cis-4,4′-DMAR
  Hyperthermia Variation (Δ°C): 2.22 ± 0.12 Δ°C
[2]; lower doses 0.1–10 mg/kg i.p., mice
  Hyperthermia: ineffective
[3]; 60 mg/kg, vs control
  Immunoreactivity of iNOS in the frontal cortex: increased
[3]; 60 mg/kg, vs control, listed as (±)cis
  Immunoreactivity of iNOS in the frontal cortex: large increase
[4]; 10, 30 and 60 mg/kg, vs control
  Immunoreactivity of NF-kB in the frontal cortex: increased

## Cc1ccc(C2OC(N)=NC2C)cc1 (stereo not drawn) [trans-4,4’-DMAR, 4-methyl-5-(4-methylphenyl)-4,5-dihydrooxazol-2-amine]
[1]; 30 mg/kg alone
  Immunoreactivity of HSP70 in the frontal cortex: ineffective
[2]; [5]
  Hyperthermia Variation (Δ°C): −0.32 ± 0.1 Δ°C
[2]; 30 mg/kg i.p., n=6 mice
  Hyperthermia Variation (Δ°C): −0.37 ± 0.13 Δ°C
[2]; 60 mg/kg i.p., n=6 mice
  Hyperthermia Variation (Δ°C): −0.35 ± 0.16 Δ°C
[3]; 30 mg/kg alone
  Immunoreactivity of iNOS in the frontal cortex: ineffective
[4]; 30 mg/kg alone
  Immunoreactivity of NF-kB in the frontal cortex: ineffective
